Measurements taken from patent US20230357310A1, “Saponin derivatives with improved therapeutic window” (priority 2019, published 2023).
pIC50: −log10 of the molar value. Read-outs that look alike come from different tables or passages of the source.

How the values were obtained:
[1] = tested on: EGFR expressing cells (A431); assay: Cell viability assay (MTS): saponin titrated on fixed 10 pM targeted toxin; type: cell-based; conditions: without targeted toxin
A2058 (EGFR−) cells = assay: Cell viability, saponin derivative with or without […] EGFdianthin; conditions: A2058, saponin as single compound
[2] = Critical micellar concentration (ANS fluorescence); type: physicochemical; conditions: for CMC compared with native (underivatised) saponin: comparison in words
Procedure: The critical micellar concentration (CMC) of saponins derived from Saponaria officinalis (SO) (Table A7) and derived from Quillaja saponaria (QS) (Table A8, and Table A9) was determined by the method of DeVendittis et al. (A fluorimetric method for the estimation of the critical micelle concentration of surfactants, Analytical Biochemistry, Volume 115, Issue 2, August 1981, Pages 278-286) as follows:
The emission spectrum of 8-Anilinonaphthalene-1-sulfonic acid (ANS) in either purified water (MQ) or PBS (Dulbecco's PBS+/+) was determined at dry weight concentrations of saponins ranging from 1 to 1400 μM to cover the range below and above the CMC. Above the CMC, the fluorescence yield of ANS increases and the wavelength of maximum emission decreases due to portioning of the fluorescent dye into micelles. Fluorescence yields were recorded on a Fluoroskan Ascent FL (Thermo Scientific) at an excitation wavelength of 355 nm, and an emission wavelength of 460 nm. 6 μg at a concentration of 75.86 μM of ANS were used per sample and measurement.

human red blood cells = assay: cells; conditions: for hemolytic activity compared with unmodified saponin: comparison in words; for IC50: read-out: IC50 nM (hemolysis)
Procedure: Red blood cells (RBCs) were isolated from a buffy coat using a Ficoll gradient. The obtained RBC pellet (˜4-5 ml) was washed 2× with 50 ml DPBS (without Ca^2+/Mg^2+, PAN-Biotech GmbH). Cells were pelleted by centrifugation for 10 min, 800×g at RT. RBC were counted and resuspended at 500.000.000 c/ml in DPBS (without Ca^2+/Mg^2+), based on total cell count.
Saponin dilutions were prepared in DPBS (with Ca^2+/Mg^2+, PAN-Biotech GmbH), at 1.11×final strength. For positive lysis control a 0.02% Triton-X100 solution was prepared in DPBS^+/+. Of all compound solutions 135 μl was dispensed/well in a 96 well V-bottom plate. To this 15 μl RBC suspension was added and mixed shortly (10 sec-600 rpm). The plate was incubated 30 min at RT, with gentle agitation. Afterwards the plate was spun for 10 min at 800×g to pellet the RBC and 100-120 μl supernatant was transferred to a standard 96 wp (96 well-plate).

HeLa cells [3] = assay: cells; conditions: for cytotoxicity compared with unmodified saponin: comparison in words
HeLa (EGFR+) cells = conditions: saponin as single compound
Procedure: To extend this test, saponins from other sources were analyzed. A saponin purified from a root extract of Gypsophila elegans M. Bieb. […] FIG. 63C).

HSP27 mRNA in A431 cells = assay: HSP27 mRNA gene silencing analysis; type: cell-based; conditions: A431, without oligonucleotide
From the text: (§1) RNA from cells was isolated and analysed according to standard protocols (Biorad). qPCR primers that were used are indicated in Table A10.

[4] = tested on: EGFR expressing cells (HeLa); assay: cells; conditions: for pIC50: Homo sapiens, HeLa, read-out: IC50 endosomal escape enhancing activity, in HeLa or A431, + 5 pM EGF-dianthin, summary range; for endosomal escape enhancing activity (enhancement of cytotoxicity of ADC / effector molecules): summary statement in the description
HeLa cells [5] = assay: Pilot cell viability bioassay, saponin + 1.5 pM dianthin-EGF, 72 h; type: cell-based; conditions: 10 microgram/ml saponin + […] dianthin-EGF
Procedure: HeLa cells were incubated for 72 h with the following constructs and cell viability before and after the 72 h-incubation was assessed. In the experiments, cells were exposed to 1.5 pM dianthin-EGF conjugate. A negative control were cells incubated with buffer vehicle and 10 microgram/ml saponin, without dianthin-EGF. Cell viability was set to 100% for the control in which both saponin and EGF-dianthin were omitted. […] Cell viability after 72 h was essentially 0%. For the chemically modified saponin variants, 10 microgram/ml saponin was tested in combination with 1.5 pM dianthin-EGF.

A431 (EGFR++) cells = assay: Cell viability, saponin derivative with or without […] EGFdianthin; conditions: A431, saponin as single compound
[6] = tested on: HSP27 mRNA in SK-BR-3 cells; assay: HSP27 mRNA gene silencing analysis; type: cell-based; conditions: with and without SO1861-Ald-EMCH, SK-BR-3 (FIG. 58)
From the text: as §1

CC(=O)OC1C(C)OC(OC2C(C)OC(OC(=O)[C@]34CCC(C)(C)CC3C3=CCC5[C@@]6(C)CC[C@H](OC7OC(C(=O)O)C(O)C(OC8OCC(O)C(O)C8O)C7OC7OC(CO)C(O)C(O)C7O)[C@@](C)(/C=N/NC(=O)CCCCCN7C(=O)C=CC7=O)C6CC[C@@]5(C)[C@]3(C)C[C@H]4O)C(OC3OC(C)C(OC4OCC(O)C(OC5OC(CO)C(O)C(O)C5O)C4O)C(O)C3O)C2O)C(O)C1OC1OCC(O)C(O)C1O (stereo partly shown) [SO1861-Ald-EMCH]
cell killing activity of saponin alone [1]: no cell killing activity
general toxicity in absence of EGFdianthin (A2058 (EGFR−) cells): > 25.000 nM
CMC ([2]; PBS (Tables A7, A9)): > 800 µM
CMC compared with native (underivatised) saponin [2]: higher CMC values
hemolytic activity compared with unmodified saponin (human red blood cells): less hemolytically active
cytotoxicity compared with unmodified saponin (HeLa cells [3]): less cytotoxic
general toxicity in absence of EGFdianthin (HeLa (EGFR+) cells): > 25.000 nM
HSP27 gene silencing activity of saponin derivative alone (HSP27 mRNA in A431 cells): no HSP27 gene silencing activity
pIC50 [4]: 5.70 to 6.22
Cell viability after 72 h (HeLa cells [5]): reduced cell viability
general toxicity in absence of EGFdianthin (A431 (EGFR++) cells): > 25.000 nM

CC(=O)OC1C(C)OC(OC2C(C)OC(OC(=O)[C@]34CCC(C)(C)CC3C3=CCC5[C@@]6(C)CC[C@H](OC7OC(C(=O)O)C(O)C(OC8OCC(O)C(O)C8O)C7OC7OC(CO)C(O)C(O)C7O)[C@@](C)(C=O)C6CC[C@@]5(C)[C@]3(C)C[C@H]4O)C(OC3OC(C)C(OC4OCC(O)C(OC5OCC(O)C(O)C5O)C4O)C(O)C3O)C2O)C(O)C1OC(C)=O (stereo partly shown) [GE1741, reference compound]
general toxicity in absence of EGFdianthin (HeLa (EGFR+) cells): 5.000 nM

CC(=O)OC1C(C)OC(OC2C(C)OC(OC(=O)[C@]34CCC(C)(C)CC3C3=CCC5[C@@]6(C)CC[C@H](OC7OC(C(=O)O)C(O)C(OC8OCC(O)C(O)C8O)C7OC7OC(CO)C(O)C(O)C7O)[C@@](C)(/C=N/NC(=O)CCCCCN7C(=O)C[C@H](SCCO)C7=O)C6CC[C@@]5(C)[C@]3(C)C[C@H]4O)C(OC3OC(C)C(OC4OCC(O)C(OC5OC(CO)C(O)C(O)C5O)C4O)C(O)C3O)C2O)C(O)C1OC1OCC(O)C(O)C1O (stereo partly shown) [SO1861-Ald-EMCH-blocked]
CMC ([2]; SO saponins, determined in PBS, Table A7): 50 ± 5 µM
CMC compared with native (underivatised) saponin [2]: lower CMC values
IC50 (human red blood cells; Homo sapiens, Erythrocyte): 300000 nM
pIC50 (human red blood cells; Homo sapiens, Erythrocyte, read-out: IC50 hemolytic activity): 3.52
hemolytic activity compared with unmodified saponin (human red blood cells): less hemolytically active
IC50 (human red blood cells; red blood cells, Table A6): 300000 nM
IC50 (HeLa cells [3]; Homo sapiens, HeLa, read-out: IC50 nM (Toxicity)): > 100000 nM
pIC50 (HeLa cells [3]; Homo sapiens, HeLa, read-out: IC50 toxicity): < 4.00
cytotoxicity compared with unmodified saponin (HeLa cells [3]): less cytotoxic
pIC50 [4]: 5.70 to 6.22

CC1OC(OC2C(C)OC(OC(=O)[C@]34CCC(C)(C)CC3C3=CCC5[C@@]6(C)CC[C@H](OC7OC(C(=O)O)C(O)C(OC8OCC(O)C(O)C8O)C7OC7OC(CO)C(O)C(O)C7O)[C@@](C)(C=O)C6CC[C@@]5(C)[C@]3(C)C[C@H]4O)C(OC3OC(C)C(OC4OCC(O)C(OC5OC(CO)C(O)C(O)C5O)C4O)C(O)C3O)C2O)C(O)C(OC2OCC(O)C(O)C2O)C1O (stereo partly shown) [Molecule 8]
CMC compared with native (underivatised) saponin [2]: increased CMC
endosomal escape enhancing activity (enhancement of cytotoxicity of ADC / effector molecules) [4]: display activity

CC(=O)OC1C(C)OC(OC2C(C)OC(OC(=O)C34CCC(C)(C)CC3C3=CCC5C6(C)CCC(OC7OC(C(=O)O)C(O)C(OC8OCC(O)C(O)C8O)C7OC7OC(CO)C(O)C(O)C7O)C(C)(C=NNC(=O)CCOCCOCCOCCOCCN=[N+]=[N-])C6CCC5(C)C3(C)CC4O)C(OC3OC(C)C(OC4OCC(O)C(OC5OC(CO)C(O)C(O)C5O)C4O)C(O)C3O)C2O)C(O)C1OC1OCC(O)C(O)C1O (stereo not shown)
general toxicity in absence of EGFdianthin (HeLa (EGFR+) cells): above 10.000 nM
general toxicity in absence of EGFdianthin (A431 (EGFR++) cells): above 10.000 nM

CC1OC(OC2C(C)OC(OC(=O)[C@]34CCC(C)(C)CC3C3=CCC5[C@@]6(C)CC[C@H](OC7OC(C(=O)O)C(O)C(OC8OCC(O)C(O)C8O)C7OC7OC(CO)C(O)C(O)C7O)[C@@](C)(CO)C6CC[C@@]5(C)[C@]3(C)C[C@H]4O)C(OC3OC(C)C(OC4OCC(O)C(OC5OC(CO)C(O)C(O)C5O)C4O)C(O)C3O)C2O)C(O)C(OC2OCC(O)C(O)C2O)C1O (stereo partly shown) [Molecule 10]
CMC compared with native (underivatised) saponin [2]: increased CMC
endosomal escape enhancing activity (enhancement of cytotoxicity of ADC / effector molecules) [4]: have the capacity to enhance the cytotoxic effect

HSP27LNA: HSP27 LNA oligo 5′-ggcacagccagtggcg-3′ (GGCACAGCCAGTGGCG; LNA-modified, pattern not given here)
endosomal escape/gene silencing enhancement factor compared with HSP27BNA [6]: comparable

CC(=O)OC1C(C)OC(OC2C(C)OC(OC(=O)[C@]34CCC(C)(C)CC3C3=CCC5[C@@]6(C)CC[C@H](OC7OC(C(=O)O)C(O)C(OC8OCC(O)C(O)C8O)C7OC7OC(CO)C(O)C(O)C7O)[C@@](C)(CO)C6CC[C@@]5(C)[C@]3(C)C[C@H]4O)C(OC3OC(C)C(OC4OCC(O)C(OC5OC(CO)C(O)C(O)C5O)C4O)C(O)C3O)C2O)C(O)C1OC1OCC(O)C(O)C1O (stereo partly shown) [Molecule 6]
CMC compared with native (underivatised) saponin [2]: increased CMC
endosomal escape enhancing activity (enhancement of cytotoxicity of ADC / effector molecules) [4]: have the capacity to enhance the cytotoxic effect

CC(=O)OC1C(C)OC(OC2C(C)OC(OC(=O)[C@]34CCC(C)(C)CC3C3=CCC5[C@@]6(C)CC[C@H](OC7OC(C(=O)O)C(O)C(OC8OCC(O)C(O)C8O)C7OC7OC(CO)C(O)C(O)C7O)[C@@](C)(C=O)C6CC[C@@]5(C)[C@]3(C)C[C@H]4O)C(OC3OC(C)C(OC4OCC(O)C(OC5OC(CO)C(O)C(O)C5O)C4O)C(O)C3O)C2O)C(O)C1OC1OCC(O)C(O)C1O (stereo partly shown) [SO1861, reference compound]
cell killing activity of saponin alone [1]: no cell killing activity
general toxicity in absence of EGFdianthin (A2058 (EGFR−) cells): strong cell viability reduction
CMC ([2]; PBS (Tables A7, A9)): 185 µM
general toxicity in absence of EGFdianthin (HeLa (EGFR+) cells): strong cell viability reduction
Cell viability after 72 h (HeLa cells [5]): ~0%
general toxicity in absence of EGFdianthin (A431 (EGFR++) cells): strong cell viability reduction

CC1OC(OC2C(C)OC(OC(=O)C34CCC(C)(C)CC3C3=CCC5C6(C)CCC(OC7OC(C(=O)O)C(O)C(OC8OCC(O)C(O)C8O)C7OC7OC(CO)C(O)C(O)C7O)C(C)(C=NNC(=O)CCCCCN7C(=O)C=CC7=O)C6CCC5(C)C3(C)CC4O)C(OC3OC(C)C(OC4OCC(O)C(OC5OC(CO)C(O)C(O)C5O)C4O)C(O)C3O)C2O)C(O)C(OC2OCC(O)C(O)C2O)C1O (stereo not shown) [Molecule 15]
CMC compared with native (underivatised) saponin [2]: increased CMC
endosomal escape enhancing activity (enhancement of cytotoxicity of ADC / effector molecules) [4]: have the capacity to enhance the cytotoxic effect

CC1OC(OC2C(C)OC(OC(=O)[C@]34CCC(C)(C)CC3C3=CCC5[C@@]6(C)CC[C@H](OC7OC(C(=O)NC(C)(CO)CO)C(O)C(OC8OCC(O)C(O)C8O)C7OC7OC(CO)C(O)C(O)C7O)[C@@](C)(C=O)C6CC[C@@]5(C)[C@]3(C)C[C@H]4O)C(OC3OC(C)C(OC4OCC(O)C(OC5OC(CO)C(O)C(O)C5O)C4O)C(O)C3O)C2O)C(O)C(OC2OCC(O)C(O)C2O)C1O (stereo partly shown) [Molecule 11]
endosomal escape enhancing activity (enhancement of cytotoxicity of ADC / effector molecules) [4]: display activity
